Test results: PubChem BioAssay (NCI)
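Method: 48-hour compound exposure of cells in 96-well plates, five concentrations, linear interpolation of endpoints. GI50 marks 50% less growth. At the TGI there is no net growth.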

What was measured:
Test in all cases: NCI anticancer screen, dose series, 48 h
IGROV1 ovarian = system: IGROV1 ovarian
RXF 393 renal = system: RXF 393 renal
KM12 colon = system: KM12 colon
SNB-75 CNS = system: SNB-75 CNS
MOLT-4 leukemia = system: MOLT-4 leukemia
UACC-257 melanoma = system: UACC-257 melanoma
NCI-H226 lung = system: NCI-H226 lung
OVCAR-3 ovarian = system: OVCAR-3 ovarian
SNB-19 CNS = system: SNB-19 CNS
UO-31 renal = system: UO-31 renal
COLO 205 colon = system: COLO 205 colon
SK-MEL-5 melanoma = system: SK-MEL-5 melanoma
UACC-62 melanoma = system: UACC-62 melanoma
HOP-62 NSCLC = system: HOP-62 NSCLC
SW-620 colon = system: SW-620 colon
HL-60(TB) leukemia = system: HL-60(TB) leukemia
SK-MEL-2 melanoma = system: SK-MEL-2 melanoma
A549 NSCLC = system: A549 NSCLC
OVCAR-4 ovarian = system: OVCAR-4 ovarian
SK-MEL-28 melanoma = system: SK-MEL-28 melanoma
SF-268 CNS = system: SF-268 CNS
SK-OV-3 ovarian = system: SK-OV-3 ovarian
RPMI-8226 leukemia = system: RPMI-8226 leukemia
MDA-MB-231 breast = system: MDA-MB-231 breast
U251 CNS = system: U251 CNS
SR leukemia = system: SR leukemia
OVCAR-5 ovarian = system: OVCAR-5 ovarian
MCF7 breast = system: MCF7 breast
HT29 colon = system: HT29 colon
MDA-MB-435 = system: MDA-MB-435
CAKI-1 renal = system: CAKI-1 renal
786-0 renal = system: 786-0 renal
PC-3 prostate = system: PC-3 prostate
DU-145 prostate = system: DU-145 prostate
BT-549 breast = system: BT-549 breast
HCT-15 colon = system: HCT-15 colon
M14 melanoma = system: M14 melanoma
K-562 leukemia = system: K-562 leukemia
SF-539 CNS = system: SF-539 CNS
NCI-H460 lung = system: NCI-H460 lung
NCI/ADR-RES ovarian = system: NCI/ADR-RES ovarian
HCT-116 colon = system: HCT-116 colon
NCI-H522 lung = system: NCI-H522 lung
HCC-2998 colon = system: HCC-2998 colon
ACHN renal = system: ACHN renal
CCRF-CEM leukemia = system: CCRF-CEM leukemia
OVCAR-8 ovarian = system: OVCAR-8 ovarian
HS 578T breast = system: HS 578T breast
A498 renal = system: A498 renal
SF-295 CNS = system: SF-295 CNS
LOX IMVI melanoma = system: LOX IMVI melanoma
SN12C renal = system: SN12C renal

## O=S(=O)(Nc1ncccn1)c1ccc(N=Nc2ccc(O)c3ncccc23)cc1
IGROV1 ovarian
  GI50: 4.37 µM
  TGI: 33 µM
RXF 393 renal
  GI50: 9.95 µM
  TGI: 29.2 µM
KM12 colon
  GI50: 5.87 µM
  TGI: 29.8 µM
SNB-75 CNS
  GI50: 2.01 µM
  TGI: 11 µM
MOLT-4 leukemia
  GI50: 5.68 µM
  TGI: 51.2 µM
UACC-257 melanoma
  GI50: 14.8 µM
  TGI: 45.2 µM
NCI-H226 lung
  GI50: 13.4 µM
  TGI: 30.5 µM
OVCAR-3 ovarian
  GI50: 6.25 µM
  TGI: 59.4 µM
SNB-19 CNS
  GI50: 6.83 µM
  TGI: > 100 µM
UO-31 renal
  GI50: 1.94 µM
  TGI: 12.4 µM
COLO 205 colon
  GI50: 26.2 µM
  TGI: > 100 µM
SK-MEL-5 melanoma
  GI50: 6.85 µM
  TGI: 20.7 µM
UACC-62 melanoma
  GI50: 3.4 µM
  TGI: 14 µM
HOP-62 NSCLC
  GI50: 9.15 µM
  TGI: 76.1 µM
SW-620 colon
  GI50: 5.67 µM
  TGI: 33.7 µM
HL-60(TB) leukemia
  GI50: 6.34 µM
  TGI: 32.1 µM
SK-MEL-2 melanoma
  GI50: 18.3 µM
  TGI: 43.6 µM
A549 NSCLC
  GI50: 5.46 µM
  TGI: 29 µM
OVCAR-4 ovarian
  GI50: 4.51 µM
  TGI: 71.7 µM
SK-MEL-28 melanoma
  GI50: 12.5 µM
  TGI: 46.3 µM
SF-268 CNS
  GI50: 9.14 µM
  TGI: 87 µM
SK-OV-3 ovarian
  GI50: 19.2 µM
  TGI: > 100 µM
RPMI-8226 leukemia
  GI50: 3.94 µM
  TGI: 25.2 µM
MDA-MB-231 breast
  GI50: 15.9 µM
  TGI: 97.1 µM
U251 CNS
  GI50: 4.71 µM
  TGI: 30.4 µM
SR leukemia
  GI50: 4.62 µM
  TGI: 63 µM
OVCAR-5 ovarian
  GI50: 29.7 µM
  TGI: 89.2 µM
MCF7 breast
  GI50: 5.67 µM
  TGI: 29.4 µM
HT29 colon
  GI50: 22.6 µM
  TGI: 78 µM
MDA-MB-435
  GI50: 5.31 µM
  TGI: 21.8 µM
CAKI-1 renal
  GI50: 3.82 µM
  TGI: 21 µM
786-0 renal
  GI50: 7.17 µM
  TGI: 58.1 µM
PC-3 prostate
  GI50: 15.6 µM
  TGI: > 100 µM
DU-145 prostate
  GI50: 12 µM
  TGI: > 100 µM
BT-549 breast
  GI50: 10.7 µM
  TGI: 27 µM
HCT-15 colon
  GI50: 4.05 µM
  TGI: 22.5 µM
M14 melanoma
  GI50: 8.59 µM
  TGI: 26.6 µM
K-562 leukemia
  GI50: 3.23 µM
  TGI: 61.2 µM
SF-539 CNS
  GI50: 4.67 µM
  TGI: 21.9 µM
NCI-H460 lung
  GI50: 3.69 µM
  TGI: 17.2 µM
NCI/ADR-RES ovarian
  GI50: 5.37 µM
  TGI: 51.8 µM
HCT-116 colon
  GI50: 4.2 µM
  TGI: 40.4 µM
NCI-H522 lung
  GI50: 5 µM
  TGI: 25.7 µM
HCC-2998 colon
  GI50: 12.2 µM
  TGI: 29 µM
ACHN renal
  GI50: 5.18 µM
  TGI: 24.4 µM
CCRF-CEM leukemia
  GI50: 3.29 µM
  TGI: 24.8 µM
OVCAR-8 ovarian
  GI50: 3.6 µM
  TGI: 27.2 µM
HS 578T breast
  GI50: 3 µM
  TGI: 13.1 µM
A498 renal
  GI50: 12.5 µM
  TGI: 27.2 µM
SF-295 CNS
  GI50: 2.89 µM
  TGI: 12 µM
LOX IMVI melanoma
  GI50: 8.7 µM
  TGI: 33.7 µM
SN12C renal
  GI50: 6.43 µM
  TGI: 53.4 µM
